# Data taken from PMC4854315, “Discovery of a novel allosteric inhibitor-binding site in ERK5: comparison with the canonical kinase hinge ATP-binding site” (Acta Crystallographica. Section D, Structural Biology, 2016).
# Assays:
# Experiment in all cases: Z'-LYTE kinase panel
# Format in all cases: biochemical
# [1] = target: T1, CAMK2D (CaMKII delta) (Homo sapiens, UniProt Q13557)
# T1 construct: purchased ThermoFisher (SelectScreen, Z'-LYTE)
# Summary of the method: (§1)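 Single-point screen, 10 µM compound; % inhibition read by Z′-LYTE (FRET-based) format per standard protocol; 225-kinase panel.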
# [2] = target: T2, EPHB1 (Homo sapiens, UniProt P54762)
# T2 construct: purchased ThermoFisher (SelectScreen, Z'-LYTE)
# T2 sequence (P54762 18-984): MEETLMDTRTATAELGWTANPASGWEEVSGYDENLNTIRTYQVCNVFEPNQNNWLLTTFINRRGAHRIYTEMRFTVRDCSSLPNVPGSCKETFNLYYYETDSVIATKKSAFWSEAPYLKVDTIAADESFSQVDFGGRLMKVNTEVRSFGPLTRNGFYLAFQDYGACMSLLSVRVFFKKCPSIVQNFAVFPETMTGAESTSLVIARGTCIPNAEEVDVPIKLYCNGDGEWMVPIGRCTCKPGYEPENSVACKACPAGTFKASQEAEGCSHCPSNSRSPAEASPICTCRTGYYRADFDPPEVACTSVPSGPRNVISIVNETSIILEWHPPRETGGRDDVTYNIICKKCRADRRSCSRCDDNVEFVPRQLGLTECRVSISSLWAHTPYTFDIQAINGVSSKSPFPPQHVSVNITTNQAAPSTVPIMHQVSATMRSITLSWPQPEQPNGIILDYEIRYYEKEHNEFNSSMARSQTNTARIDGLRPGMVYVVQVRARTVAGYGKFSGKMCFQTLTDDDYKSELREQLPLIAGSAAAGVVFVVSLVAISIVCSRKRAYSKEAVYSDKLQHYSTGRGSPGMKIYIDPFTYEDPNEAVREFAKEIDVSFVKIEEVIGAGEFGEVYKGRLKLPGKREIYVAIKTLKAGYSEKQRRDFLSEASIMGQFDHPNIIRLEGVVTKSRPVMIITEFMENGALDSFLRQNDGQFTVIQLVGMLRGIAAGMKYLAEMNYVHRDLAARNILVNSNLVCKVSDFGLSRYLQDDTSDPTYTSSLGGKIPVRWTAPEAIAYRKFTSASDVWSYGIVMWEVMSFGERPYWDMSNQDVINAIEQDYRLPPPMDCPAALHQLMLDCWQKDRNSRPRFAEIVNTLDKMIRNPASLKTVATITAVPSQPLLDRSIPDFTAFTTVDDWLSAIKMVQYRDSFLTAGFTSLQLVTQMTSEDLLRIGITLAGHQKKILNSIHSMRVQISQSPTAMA
# Summary of the method: as §1
# [3] = target: T3, GSK3A (GSK3 alpha) (Homo sapiens, UniProt P49840); settings: 10 µM compound, ATP Km app
# T3 construct: purchased ThermoFisher (SelectScreen, Z'-LYTE)
# Summary of the method: as §1
# [4] = target: T4, INSR (Homo sapiens, UniProt P06213)
# T4 construct: purchased ThermoFisher (SelectScreen, Z'-LYTE)
# Summary of the method: as §1
# [5] = target: T5, LYN A (Homo sapiens, UniProt P07948)
# T5 construct: purchased ThermoFisher (SelectScreen, Z'-LYTE)
# Summary of the method: as §1
# [6] = target: T6, PRKD2 (PKD2) (Homo sapiens, UniProt Q9BZL6)
# T6 construct: purchased ThermoFisher (SelectScreen, Z'-LYTE)
# T6 sequence (Q9BZL6 1-878): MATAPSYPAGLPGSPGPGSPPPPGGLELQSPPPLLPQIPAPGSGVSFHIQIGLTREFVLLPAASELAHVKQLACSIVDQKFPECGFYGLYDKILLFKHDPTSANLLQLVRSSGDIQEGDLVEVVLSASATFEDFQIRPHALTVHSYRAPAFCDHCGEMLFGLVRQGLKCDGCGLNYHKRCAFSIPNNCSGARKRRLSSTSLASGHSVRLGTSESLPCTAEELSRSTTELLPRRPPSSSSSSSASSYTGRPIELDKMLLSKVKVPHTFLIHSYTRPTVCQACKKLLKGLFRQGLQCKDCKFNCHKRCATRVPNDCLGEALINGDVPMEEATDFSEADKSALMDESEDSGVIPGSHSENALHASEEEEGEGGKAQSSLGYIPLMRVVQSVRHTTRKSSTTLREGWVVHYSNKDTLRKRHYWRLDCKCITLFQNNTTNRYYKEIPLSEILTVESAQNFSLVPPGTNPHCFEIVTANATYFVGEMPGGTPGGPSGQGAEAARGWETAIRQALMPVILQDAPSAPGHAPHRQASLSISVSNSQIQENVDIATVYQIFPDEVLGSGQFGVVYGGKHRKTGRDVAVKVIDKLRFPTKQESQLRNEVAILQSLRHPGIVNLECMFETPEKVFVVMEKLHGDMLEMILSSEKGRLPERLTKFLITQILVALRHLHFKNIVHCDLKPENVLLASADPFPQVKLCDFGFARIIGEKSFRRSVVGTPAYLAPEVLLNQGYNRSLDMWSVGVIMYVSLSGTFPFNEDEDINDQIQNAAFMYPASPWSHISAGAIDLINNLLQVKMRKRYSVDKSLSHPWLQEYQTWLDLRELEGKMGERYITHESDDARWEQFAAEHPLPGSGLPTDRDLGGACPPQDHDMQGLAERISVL
# Summary of the method: as §1
# [7] = target: T7, TXK (Homo sapiens, UniProt P42681)
# T7 construct: purchased ThermoFisher (SelectScreen, Z'-LYTE)
# T7 sequence (P42681 1-527): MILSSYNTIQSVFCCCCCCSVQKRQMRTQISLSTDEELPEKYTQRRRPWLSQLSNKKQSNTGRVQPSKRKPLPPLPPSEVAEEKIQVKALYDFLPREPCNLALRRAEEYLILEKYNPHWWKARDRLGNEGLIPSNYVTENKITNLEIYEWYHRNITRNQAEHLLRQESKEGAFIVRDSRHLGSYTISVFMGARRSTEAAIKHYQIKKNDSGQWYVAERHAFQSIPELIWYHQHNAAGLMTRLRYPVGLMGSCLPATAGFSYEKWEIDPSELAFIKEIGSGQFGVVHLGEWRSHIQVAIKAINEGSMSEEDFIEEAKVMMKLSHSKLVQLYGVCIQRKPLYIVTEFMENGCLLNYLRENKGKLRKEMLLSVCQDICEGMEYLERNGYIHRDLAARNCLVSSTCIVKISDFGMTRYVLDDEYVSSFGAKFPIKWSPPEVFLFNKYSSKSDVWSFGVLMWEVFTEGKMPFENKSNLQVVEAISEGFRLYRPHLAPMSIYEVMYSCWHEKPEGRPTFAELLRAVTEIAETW
# Summary of the method: as §1
# T5 sequence (P07948 whole entry): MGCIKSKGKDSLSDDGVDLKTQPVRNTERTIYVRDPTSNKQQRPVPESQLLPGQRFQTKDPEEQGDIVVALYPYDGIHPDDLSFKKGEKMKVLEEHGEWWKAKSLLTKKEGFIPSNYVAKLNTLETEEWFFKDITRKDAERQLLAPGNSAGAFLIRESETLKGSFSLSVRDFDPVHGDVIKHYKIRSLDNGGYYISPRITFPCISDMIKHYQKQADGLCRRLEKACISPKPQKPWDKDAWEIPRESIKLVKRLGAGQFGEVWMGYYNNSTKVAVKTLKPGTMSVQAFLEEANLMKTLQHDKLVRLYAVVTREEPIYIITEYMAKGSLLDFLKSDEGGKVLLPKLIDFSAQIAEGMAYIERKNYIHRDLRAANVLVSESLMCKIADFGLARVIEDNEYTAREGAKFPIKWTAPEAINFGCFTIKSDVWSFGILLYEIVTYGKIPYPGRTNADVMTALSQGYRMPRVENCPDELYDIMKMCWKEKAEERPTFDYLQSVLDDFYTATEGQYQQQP
# T3 sequence (P49840 whole entry): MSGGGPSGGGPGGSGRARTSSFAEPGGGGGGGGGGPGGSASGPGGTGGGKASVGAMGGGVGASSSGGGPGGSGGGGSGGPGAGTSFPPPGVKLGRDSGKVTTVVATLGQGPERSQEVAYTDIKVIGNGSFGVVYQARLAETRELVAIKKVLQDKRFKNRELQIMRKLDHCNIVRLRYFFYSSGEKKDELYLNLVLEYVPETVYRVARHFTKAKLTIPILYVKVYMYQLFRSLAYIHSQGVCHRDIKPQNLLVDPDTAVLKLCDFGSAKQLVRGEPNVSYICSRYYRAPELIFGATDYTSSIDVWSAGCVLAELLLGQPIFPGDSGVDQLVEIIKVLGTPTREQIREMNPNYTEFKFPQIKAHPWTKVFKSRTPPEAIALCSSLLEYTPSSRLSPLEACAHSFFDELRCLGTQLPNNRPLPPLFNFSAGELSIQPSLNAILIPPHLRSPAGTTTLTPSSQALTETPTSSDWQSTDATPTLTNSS
# T4 sequence (P06213 28-1382): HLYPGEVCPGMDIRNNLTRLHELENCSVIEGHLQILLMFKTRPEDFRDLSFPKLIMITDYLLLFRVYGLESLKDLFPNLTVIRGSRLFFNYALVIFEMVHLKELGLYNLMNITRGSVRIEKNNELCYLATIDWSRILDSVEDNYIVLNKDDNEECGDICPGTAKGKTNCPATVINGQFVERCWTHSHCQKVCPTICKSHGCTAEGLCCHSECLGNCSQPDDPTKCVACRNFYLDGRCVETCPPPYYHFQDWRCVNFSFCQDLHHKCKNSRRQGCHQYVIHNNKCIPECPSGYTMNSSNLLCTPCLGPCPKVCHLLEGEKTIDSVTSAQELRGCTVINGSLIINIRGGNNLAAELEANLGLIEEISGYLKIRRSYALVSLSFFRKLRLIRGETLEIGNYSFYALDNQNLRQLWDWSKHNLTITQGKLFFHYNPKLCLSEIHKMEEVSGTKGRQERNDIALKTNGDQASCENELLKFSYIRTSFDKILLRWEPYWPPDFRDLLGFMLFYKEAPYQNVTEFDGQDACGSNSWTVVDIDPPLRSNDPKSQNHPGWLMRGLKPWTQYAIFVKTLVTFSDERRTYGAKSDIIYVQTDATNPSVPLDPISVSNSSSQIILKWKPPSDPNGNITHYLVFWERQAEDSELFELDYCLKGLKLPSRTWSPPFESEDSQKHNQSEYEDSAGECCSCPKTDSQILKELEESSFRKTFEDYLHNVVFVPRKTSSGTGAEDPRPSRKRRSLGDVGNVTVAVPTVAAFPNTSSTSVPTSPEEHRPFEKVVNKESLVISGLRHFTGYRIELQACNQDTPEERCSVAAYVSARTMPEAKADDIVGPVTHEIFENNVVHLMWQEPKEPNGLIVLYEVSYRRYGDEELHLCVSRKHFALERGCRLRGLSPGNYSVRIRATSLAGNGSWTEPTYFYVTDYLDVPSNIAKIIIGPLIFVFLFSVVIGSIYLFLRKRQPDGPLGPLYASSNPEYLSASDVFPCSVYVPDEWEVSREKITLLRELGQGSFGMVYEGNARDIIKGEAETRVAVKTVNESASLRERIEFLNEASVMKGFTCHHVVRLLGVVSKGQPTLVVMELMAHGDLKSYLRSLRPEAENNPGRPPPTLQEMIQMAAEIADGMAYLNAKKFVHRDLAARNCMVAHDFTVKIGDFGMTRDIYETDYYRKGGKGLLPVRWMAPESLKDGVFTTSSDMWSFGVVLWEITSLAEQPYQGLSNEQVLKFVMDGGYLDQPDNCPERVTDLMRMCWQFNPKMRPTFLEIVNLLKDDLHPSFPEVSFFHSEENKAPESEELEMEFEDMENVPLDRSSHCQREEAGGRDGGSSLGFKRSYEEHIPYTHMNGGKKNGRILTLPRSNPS
compound,measurement,setting,value
"XMD8-92 [Compound 2, reference compound]",CAMK2D (CaMKII delta) % Inhibition,"[1]; 10 µM compound, ATP Km app",63%
same,EPHB1 % Inhibition,"[2]; 10 µM compound, ATP Km app",5.39%
same,GSK3A (GSK3 alpha) % Inhibition,[3],35%
same,INSR % Inhibition,"[4]; 10 µM compound, ATP Km app",4%
same,LYN A % Inhibition,"[5]; 10 µM compound, ATP Km app",66%
same,PRKD2 (PKD2) % Inhibition,"[6]; 10 µM compound, ATP Km app",21%
same,TXK % Inhibition,"[7]; 10 µM compound, ATP Km app",73%
Cc1ncc(-c2nc(Nc3ccc(C(=O)NCCN4CCCCC4)cc3)ncc2F)n1C(C)C [Compound 3],inhibition at 10 µM,[1],88%
same,inhibition at 10 µM,[2],94%
same,inhibition at 10 µM,[3],98%
same,inhibition at 10 µM,[4],69%
same,inhibition at 10 µM,[5],88%
same,inhibition at 10 µM,[6],95%
same,inhibition at 10 µM,[7],40%
Cc1cc(Nc2nc(N)nn2C(=O)NC(C)C)ccc1Cl [Compound 5],inhibition at 10 µM,[1],-2.38%
same,inhibition at 10 µM,[2],7.51%
same,inhibition at 10 µM,[3],> 80%
same,GSK3A (GSK3 alpha) % Inhibition,"[3]; listed as SN1109056190, 10 µM",82%
same,inhibition at 10 µM,[4],5.44%
same,inhibition at 10 µM,[5],25%
same,inhibition at 10 µM,[6],9%
same,inhibition at 10 µM,[7],-9%
